# Assay results from US9446039B2, “Aminoheteroaryl compounds as MTH1 inhibitors” (CEMM—FORSCHUNGSZENTRUM FÜR MOLEKULARE MEDIZIN GMBH, priority 2012, dated 2016).
# Columns and labels:
# Format in all cases: binding
# [1] = biological target: SW480 colon carcinoma cells lysate proteins (Homo sapiens, UniProt P67936); conditions: PreyGene TPM4
# [2] = biological target: SW480 colon carcinoma cells lysate proteins (Homo sapiens, UniProt P14625); conditions: PreyGene HSP90B1
# [3] = biological target: T1, SW480 colon carcinoma cells lysate proteins (Homo sapiens, UniProt Q16181); conditions: PreyGene 07-Sep
# T1 sequence (Q16181 1-437): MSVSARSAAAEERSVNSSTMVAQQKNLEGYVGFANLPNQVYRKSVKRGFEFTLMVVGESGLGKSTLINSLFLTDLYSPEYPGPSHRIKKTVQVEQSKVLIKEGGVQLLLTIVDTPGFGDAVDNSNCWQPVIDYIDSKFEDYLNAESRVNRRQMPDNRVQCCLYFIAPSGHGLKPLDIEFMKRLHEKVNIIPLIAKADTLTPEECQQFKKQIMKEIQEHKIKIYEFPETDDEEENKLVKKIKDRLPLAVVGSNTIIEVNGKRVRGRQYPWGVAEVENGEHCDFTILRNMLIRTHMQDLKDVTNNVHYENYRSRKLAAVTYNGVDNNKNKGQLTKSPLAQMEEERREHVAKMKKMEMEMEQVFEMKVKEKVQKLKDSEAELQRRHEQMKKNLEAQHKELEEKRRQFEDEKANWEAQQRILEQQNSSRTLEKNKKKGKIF
# [4] = biological target: SW480 colon carcinoma cells lysate proteins (Homo sapiens, UniProt P07237); conditions: PreyGene P4HB
# Chain of SW480 colon carcinoma cells lysate proteins (Homo sapiens, UniProt P07237) (P07237 18-508): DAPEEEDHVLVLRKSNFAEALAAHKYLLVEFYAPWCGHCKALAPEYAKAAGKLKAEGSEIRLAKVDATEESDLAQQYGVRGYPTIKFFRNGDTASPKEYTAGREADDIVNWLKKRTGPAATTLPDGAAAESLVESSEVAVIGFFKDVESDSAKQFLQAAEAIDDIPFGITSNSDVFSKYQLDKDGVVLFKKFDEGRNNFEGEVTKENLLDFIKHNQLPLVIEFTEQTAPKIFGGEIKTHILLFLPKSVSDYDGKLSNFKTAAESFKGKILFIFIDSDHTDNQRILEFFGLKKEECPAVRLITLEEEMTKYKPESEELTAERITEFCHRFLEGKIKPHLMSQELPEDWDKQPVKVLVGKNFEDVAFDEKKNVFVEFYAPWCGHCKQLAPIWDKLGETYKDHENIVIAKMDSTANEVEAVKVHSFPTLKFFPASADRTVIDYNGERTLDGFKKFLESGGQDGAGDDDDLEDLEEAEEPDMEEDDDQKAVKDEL
# [5] = biological target: T2, SW480 colon carcinoma cells lysate proteins (Homo sapiens, UniProt P78371); conditions: PreyGene CCT2; SW480 cells
# T2 sequence (P78371 1-535): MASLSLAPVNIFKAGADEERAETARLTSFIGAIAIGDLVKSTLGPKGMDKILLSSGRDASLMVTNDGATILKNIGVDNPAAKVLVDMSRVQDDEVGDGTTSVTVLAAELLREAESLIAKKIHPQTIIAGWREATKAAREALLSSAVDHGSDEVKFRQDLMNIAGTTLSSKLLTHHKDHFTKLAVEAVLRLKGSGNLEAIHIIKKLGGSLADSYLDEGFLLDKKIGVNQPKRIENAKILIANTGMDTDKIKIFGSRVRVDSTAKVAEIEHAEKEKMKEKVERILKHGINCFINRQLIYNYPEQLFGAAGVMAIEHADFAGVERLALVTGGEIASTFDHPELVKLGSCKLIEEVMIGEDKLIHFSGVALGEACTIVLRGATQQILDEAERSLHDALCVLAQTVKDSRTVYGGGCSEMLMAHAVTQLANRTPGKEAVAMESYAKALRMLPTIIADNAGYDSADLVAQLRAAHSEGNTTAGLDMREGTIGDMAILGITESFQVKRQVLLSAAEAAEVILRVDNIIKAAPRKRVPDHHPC
# [6] = biological target: SW480 colon carcinoma cells lysate proteins (Homo sapiens, UniProt P39687); conditions: PreyGene ANP32A
# Chain of SW480 colon carcinoma cells lysate proteins (Homo sapiens, UniProt P39687) (P39687 whole entry): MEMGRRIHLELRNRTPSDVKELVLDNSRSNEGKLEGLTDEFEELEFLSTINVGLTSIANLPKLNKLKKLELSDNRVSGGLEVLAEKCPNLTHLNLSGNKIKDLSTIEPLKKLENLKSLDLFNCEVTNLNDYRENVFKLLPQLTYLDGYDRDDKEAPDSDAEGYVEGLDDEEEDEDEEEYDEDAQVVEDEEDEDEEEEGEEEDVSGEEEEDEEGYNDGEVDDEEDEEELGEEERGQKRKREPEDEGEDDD
# [7] = biological target: SW480 colon carcinoma cells lysate proteins (Homo sapiens, UniProt P49327); conditions: PreyGene FASN
# Chain of SW480 colon carcinoma cells lysate proteins (Homo sapiens, UniProt P49327) (P49327 whole entry): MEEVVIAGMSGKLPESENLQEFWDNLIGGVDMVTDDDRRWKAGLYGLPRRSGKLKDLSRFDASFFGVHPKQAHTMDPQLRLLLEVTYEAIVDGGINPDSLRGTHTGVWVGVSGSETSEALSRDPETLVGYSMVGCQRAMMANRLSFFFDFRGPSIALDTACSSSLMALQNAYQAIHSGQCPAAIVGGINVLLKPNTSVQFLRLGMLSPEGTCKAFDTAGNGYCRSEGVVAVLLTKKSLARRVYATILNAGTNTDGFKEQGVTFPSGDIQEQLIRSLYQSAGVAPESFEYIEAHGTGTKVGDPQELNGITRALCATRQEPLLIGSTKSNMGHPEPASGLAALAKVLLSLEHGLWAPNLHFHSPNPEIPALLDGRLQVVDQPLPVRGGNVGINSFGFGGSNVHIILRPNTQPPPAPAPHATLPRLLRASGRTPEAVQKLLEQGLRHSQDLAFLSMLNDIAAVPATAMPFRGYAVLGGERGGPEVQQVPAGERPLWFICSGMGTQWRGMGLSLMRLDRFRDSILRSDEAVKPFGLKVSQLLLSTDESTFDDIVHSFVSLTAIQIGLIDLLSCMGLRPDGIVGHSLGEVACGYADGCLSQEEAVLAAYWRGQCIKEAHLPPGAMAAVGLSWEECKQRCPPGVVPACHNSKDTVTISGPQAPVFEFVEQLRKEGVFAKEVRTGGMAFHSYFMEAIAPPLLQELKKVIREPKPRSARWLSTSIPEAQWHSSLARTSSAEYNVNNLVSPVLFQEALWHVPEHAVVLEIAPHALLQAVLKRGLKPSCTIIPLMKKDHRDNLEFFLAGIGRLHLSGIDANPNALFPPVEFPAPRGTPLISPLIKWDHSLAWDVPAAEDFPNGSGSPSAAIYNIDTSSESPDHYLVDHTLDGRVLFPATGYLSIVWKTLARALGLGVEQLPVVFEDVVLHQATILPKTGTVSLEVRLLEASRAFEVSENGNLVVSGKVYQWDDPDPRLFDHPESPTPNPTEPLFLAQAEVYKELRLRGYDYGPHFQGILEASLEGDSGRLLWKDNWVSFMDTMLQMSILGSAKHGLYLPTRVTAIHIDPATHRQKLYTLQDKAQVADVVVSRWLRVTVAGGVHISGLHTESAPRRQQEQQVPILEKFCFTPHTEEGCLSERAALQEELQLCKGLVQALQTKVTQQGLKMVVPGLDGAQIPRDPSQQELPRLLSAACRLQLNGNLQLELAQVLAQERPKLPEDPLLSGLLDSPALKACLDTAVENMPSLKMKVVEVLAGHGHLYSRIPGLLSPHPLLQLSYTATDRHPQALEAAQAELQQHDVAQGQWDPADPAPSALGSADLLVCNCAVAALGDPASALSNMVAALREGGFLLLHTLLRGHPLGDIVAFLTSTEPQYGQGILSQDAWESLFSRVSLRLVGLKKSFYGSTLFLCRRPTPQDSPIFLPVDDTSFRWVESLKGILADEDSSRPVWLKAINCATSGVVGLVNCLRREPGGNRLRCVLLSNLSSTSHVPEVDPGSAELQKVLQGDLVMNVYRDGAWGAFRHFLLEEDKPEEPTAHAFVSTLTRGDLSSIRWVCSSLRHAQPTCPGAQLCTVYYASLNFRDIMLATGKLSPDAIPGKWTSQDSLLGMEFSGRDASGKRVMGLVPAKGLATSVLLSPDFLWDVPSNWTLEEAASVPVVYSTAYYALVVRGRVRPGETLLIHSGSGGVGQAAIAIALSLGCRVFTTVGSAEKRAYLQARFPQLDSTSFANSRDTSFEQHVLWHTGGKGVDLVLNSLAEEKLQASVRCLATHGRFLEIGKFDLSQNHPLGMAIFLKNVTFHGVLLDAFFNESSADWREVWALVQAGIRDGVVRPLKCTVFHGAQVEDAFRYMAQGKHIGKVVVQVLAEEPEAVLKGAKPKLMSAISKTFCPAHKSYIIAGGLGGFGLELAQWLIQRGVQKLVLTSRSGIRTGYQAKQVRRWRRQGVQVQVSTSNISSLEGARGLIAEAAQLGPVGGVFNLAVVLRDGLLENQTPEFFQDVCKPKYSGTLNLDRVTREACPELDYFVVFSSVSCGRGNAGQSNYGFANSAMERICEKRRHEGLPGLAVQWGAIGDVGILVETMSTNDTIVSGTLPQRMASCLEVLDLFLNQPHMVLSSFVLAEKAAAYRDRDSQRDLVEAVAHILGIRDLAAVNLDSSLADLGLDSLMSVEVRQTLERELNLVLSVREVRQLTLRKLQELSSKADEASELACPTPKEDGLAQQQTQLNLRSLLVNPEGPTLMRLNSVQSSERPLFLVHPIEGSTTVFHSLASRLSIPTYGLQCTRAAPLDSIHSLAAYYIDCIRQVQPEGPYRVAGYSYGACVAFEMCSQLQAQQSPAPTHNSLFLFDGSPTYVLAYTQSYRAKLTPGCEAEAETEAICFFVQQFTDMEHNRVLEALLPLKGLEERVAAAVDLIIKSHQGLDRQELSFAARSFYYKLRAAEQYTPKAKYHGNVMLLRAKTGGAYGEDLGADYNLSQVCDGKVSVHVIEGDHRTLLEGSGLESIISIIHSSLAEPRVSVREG
# [8] = biological target: T3, SW480 colon carcinoma cells lysate proteins (Homo sapiens, UniProt P31949); conditions: PreyGene S100A11
# T3 sequence (P31949 1-105): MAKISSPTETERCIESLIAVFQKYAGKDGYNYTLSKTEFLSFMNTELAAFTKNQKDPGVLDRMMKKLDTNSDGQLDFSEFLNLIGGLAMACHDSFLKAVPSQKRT
# [9] = biological target: T4, SW480 colon carcinoma cells lysate proteins (Homo sapiens, UniProt P35527); conditions: PreyGene KRT9
# T4 sequence (P35527 1-623): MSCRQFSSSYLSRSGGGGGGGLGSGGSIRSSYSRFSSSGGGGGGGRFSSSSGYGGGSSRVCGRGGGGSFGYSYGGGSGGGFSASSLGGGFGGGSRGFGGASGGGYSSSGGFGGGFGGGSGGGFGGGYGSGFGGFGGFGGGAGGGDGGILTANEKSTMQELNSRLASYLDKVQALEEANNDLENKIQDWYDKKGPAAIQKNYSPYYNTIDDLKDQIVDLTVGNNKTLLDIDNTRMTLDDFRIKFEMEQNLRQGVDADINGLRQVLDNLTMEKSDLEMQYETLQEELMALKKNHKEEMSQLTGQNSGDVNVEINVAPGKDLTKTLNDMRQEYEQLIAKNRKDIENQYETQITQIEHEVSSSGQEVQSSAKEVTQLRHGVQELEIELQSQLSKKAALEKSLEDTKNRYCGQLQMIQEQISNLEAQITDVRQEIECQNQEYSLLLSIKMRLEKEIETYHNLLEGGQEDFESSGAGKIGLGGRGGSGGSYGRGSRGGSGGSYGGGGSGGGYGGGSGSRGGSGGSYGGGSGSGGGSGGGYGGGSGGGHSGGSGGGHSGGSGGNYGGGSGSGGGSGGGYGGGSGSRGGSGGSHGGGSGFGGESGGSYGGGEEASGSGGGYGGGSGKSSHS
# Chain of SW480 colon carcinoma cells lysate proteins (Homo sapiens, UniProt P67936) (P67936 whole entry): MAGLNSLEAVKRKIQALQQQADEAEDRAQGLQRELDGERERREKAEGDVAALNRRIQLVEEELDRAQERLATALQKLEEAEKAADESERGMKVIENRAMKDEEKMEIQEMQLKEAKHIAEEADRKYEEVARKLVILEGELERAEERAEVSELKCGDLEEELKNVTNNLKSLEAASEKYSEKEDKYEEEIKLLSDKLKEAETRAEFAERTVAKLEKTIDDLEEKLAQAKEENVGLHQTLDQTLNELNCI
# Chain of SW480 colon carcinoma cells lysate proteins (Homo sapiens, UniProt P14625) (P14625 22-803): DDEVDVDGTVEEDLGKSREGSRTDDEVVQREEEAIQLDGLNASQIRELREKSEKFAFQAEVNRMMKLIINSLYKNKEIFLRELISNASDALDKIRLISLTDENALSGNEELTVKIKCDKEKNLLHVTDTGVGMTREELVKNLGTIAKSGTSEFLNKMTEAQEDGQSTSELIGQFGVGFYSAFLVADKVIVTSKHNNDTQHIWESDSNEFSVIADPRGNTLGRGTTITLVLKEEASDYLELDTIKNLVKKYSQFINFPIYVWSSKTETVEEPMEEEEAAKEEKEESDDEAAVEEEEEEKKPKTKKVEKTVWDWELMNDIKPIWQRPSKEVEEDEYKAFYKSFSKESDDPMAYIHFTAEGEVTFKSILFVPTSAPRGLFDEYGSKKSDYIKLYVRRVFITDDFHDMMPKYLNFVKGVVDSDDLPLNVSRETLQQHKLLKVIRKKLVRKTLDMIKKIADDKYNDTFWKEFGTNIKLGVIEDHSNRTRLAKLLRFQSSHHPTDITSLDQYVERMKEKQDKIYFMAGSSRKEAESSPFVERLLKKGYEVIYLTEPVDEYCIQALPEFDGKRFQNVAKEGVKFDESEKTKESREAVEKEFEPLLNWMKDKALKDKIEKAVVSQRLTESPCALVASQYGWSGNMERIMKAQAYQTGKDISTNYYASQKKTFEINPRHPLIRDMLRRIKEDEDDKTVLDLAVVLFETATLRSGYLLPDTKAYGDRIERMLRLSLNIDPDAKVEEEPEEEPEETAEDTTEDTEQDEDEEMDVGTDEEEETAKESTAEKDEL
smiles,measurement,setting,value
C[C@H](Oc1cc(-c2cnn(C3CCNCC3)c2)cnc1N)c1c(Cl)ccc(F)c1Cl [(5)-crizotinib],AvgP,[1],0.4193
same,SC.Exp. 1-1,[1],5
same,SC.Exp. 1-2,[1],2
same,SC.Exp. 2-1,[1],0
same,SC.Exp. 2-2,[1],0
same,Sum (SC.Exp.),[1],7
same,AvgP,[2],0.228
same,SC.Exp. 1-1,[2],13
same,SC.Exp. 1-2,[2],8
same,SC.Exp. 2-1,[2],0
same,SC.Exp. 2-2,[2],0
same,Sum (SC.Exp.),[2],21
same,AvgP,[3],0.2962
same,SC.Exp. 1-1,[3],3
same,SC.Exp. 1-2,[3],3
same,SC.Exp. 2-1,[3],0
same,SC.Exp. 2-2,[3],0
same,Sum (SC.Exp.),[3],6
same,AvgP,[4],0.3981
same,SC.Exp. 1-1,[4],3
same,SC.Exp. 1-2,[4],4
same,SC.Exp. 2-1,[4],0
same,SC.Exp. 2-2,[4],0
same,Sum (SC.Exp.),[4],7
same,AvgP,[5],0
same,SC.Exp. 1-1,[5],9
same,SC.Exp. 1-2,[5],11
same,SC.Exp. 2-1,[5],3
same,SC.Exp. 2-2,[5],3
same,SC.Exp. Sum,[5],26
same,AvgP,[6],0.5951
same,SC.Exp. 1-1,[6],1
same,SC.Exp. 1-2,[6],1
same,SC.Exp. 2-1,[6],1
same,SC.Exp. 2-2,[6],3
same,Sum (SC.Exp.),[6],6
same,AvgP,[7],0.394
same,SC.Exp. 1-1,[7],8
same,SC.Exp. 1-2,[7],8
same,SC.Exp. 2-1,[7],0
same,SC.Exp. 2-2,[7],0
same,Sum (SC.Exp.),[7],16
same,AvgP,[8],0.3773
same,SC.Exp. 1-1,[8],4
same,SC.Exp. 1-2,[8],5
same,SC.Exp. 2-1,[8],0
same,SC.Exp. 2-2,[8],0
same,Sum (SC.Exp.),[8],9
same,AvgP,[9],0.1979
same,SC.Exp. 1-1,[9],18
same,SC.Exp. 1-2,[9],15
same,SC.Exp. 2-1,[9],4
same,SC.Exp. 2-2,[9],6
same,Sum (SC.Exp.),[9],43
